“Also recorded” adds a separate entry of the source. Some results are limits rather than exact numbers.

Experimental findings from article PMC4492764, “Evaluation of biomarkers for in vitro prediction of drug-induced nephrotoxicity: comparison of HK-2, immortalized human proximal tubule epithelial, and primary cultures of human proximal tubular cells” (Pharmacology Research & Perspectives, 2015) are described below.

Type in all cases: cell-based, human
A short description of data set [1]: Resazurin cytotoxicity assay in HK-2 cells. The note with it: human, HK-2 cells; 72 h incubation; Mean ± Standard deviation, n = 3. The procedure:
(§1) For the MTT assay, the medium was then removed, the dried crystals were resuspended in 60 μL of Dimethyl sulfoxide (DMSO), and the absorbance was read at 570 nm. For the resazurin assay, the fluorescence intensity was read using a PolarStar Omega plate reader (BMG Labtech; Mornington VIC, Australia) at excitation/emission 560/590 nm. All assays were performed at least three times. […] La Jolla, CA). Both MTT and resazurin assays were performed three times, with two technical replicates in each assay.

In the next data set the test system is M-CSF mRNA. The experiment in a line: M-CSF mRNA qRT-PCR in hRPTECs. The following applies: 72 h (Fig.4C). The procedure:
Hs00273334_m1), Lcn2 (NGAL; Hs01008571_m1), and Csf1 (M-CSF; Hs00174164_m1). All probes span an exon-exon junction. The real-time quantitative reverse transcription PCR (qRT-PCR) was performed in a 10 μl final reaction mixture using a ViiA 7TM system (Applied Biosystems®, Sydney, NSW, Australia) based on the following thermo cycling conditions: 10 min at 95°C for one cycle, 15 sec at 95°C, 60 sec at 60°C for 40 cycles. The ViiA 7TM software was used for data analysis with Hprt1 expression used for normalization. All assays were performed at least three times, with at least two technical replicates in each assay.

Data set [2] has as its system NGAL. Nature of the data set: NGAL protein ELISA in hRPTECs. Also noted: key to Upregulation of NGAL hRPTECs P: +: statistically significant increase; −: no significant increase. The following applies: for NGAL protein in hRPTEC culture medium: 24 h. As for the experimental part:
(§2) HK-2 cells (ATCC CRL-2190; Manassas, VA) were maintained in DMEM/F12 (Life Technologies; Sydney, NSW, Australia) supplemented with 5 μg/mL insulin, 5 μg/mL transferrin, 5 ng/mL sodium selenite (ITS; Roche; […] (passage 2) and culture kits were purchased from Lonza. […] were maintained in Renal Epithelial Cell BulletKitTM (CC-3190, Lonza) at 37°C and 5% CO2 atmosphere. Cells were passaged to 96-well plates with a density of 4000 cells/well. After 24 h culture, compounds with different concentration series were added into each well and incubated for 4, 24, 48, and 72 h. KIM-1 (DY1750), NGAL (DY1757), and M-CSF (DY216) Duo-Set® ELISA kits were purchased from R&D systems (Minneapolis, MN). Sandwich-ELISA experiments were conducted following the manufacturer's instructions with slight modifications. A 96-well microplate (MaxiSorp®, Nunc, Thermo Scientific, NSW, Australia) was coated with 100 μL of capture antibodies (diluted 1:200 in PBS) and incubated overnight. The plate was then washed twice with washing buffer (0.05% Tween 20 in PBS, pH 7.4) and blocked by adding 300 μL of blocking buffer (1% bovine serum albumin (BSA) in PBS) for 1 h at room temperature. After washing two times with PBS, 100 μL of samples (cell culture media or cell lysates) or standards were then added to each well and incubated for 2 h at room temperature. The biotinylated detection antibodies were then diluted in blocking buffer, added to each well and incubated for 2 h. Horseradish peroxidase (HRP)-labeled streptavidin (100 μL) was then added to bind to detection antibodies. To each well, 100 μL of substrate solution (1:1 mixture of H2O2 and tetramethylbenzidine) was added and incubated for 20 min before reaction termination with 50 μL of stop solution (2N H2SO4). The optical density of each well was measured at 450 nm using a POLARstar Omega plate reader (BMG Labtech). All assays were performed at least three times, with at least two technical replicates in each assay.

Data set [3] can be described thus: MTT cytotoxicity assay in hRPTECs. The note with it: human, hRPTECs (passage 2); 72 h incubation; Mean ± Standard deviation, n = 3. As for the experimental part: as §1
Data set [4] is described as follows: MTT cytotoxicity assay in HK-2 cells. The following applies: human, HK-2 cells; 72 h incubation; Mean ± Standard deviation, n = 3. As for the experimental part:
as §1

Data set [5] has as its system KIM-1 mRNA. The experiment in a line: KIM-1 mRNA qRT-PCR in hRPTECs. Also on record: key to Upregulation of KIM-1 hRPTECs R: +: statistically significant increase; −: no significant increase. As for the experimental part: (§3) HK-2 cells (ATCC CRL-2190; Manassas, VA) were maintained in DMEM/F12 (Life Technologies; Sydney, NSW, Australia) supplemented with 5 μg/mL insulin, 5 μg/mL transferrin, 5 ng/mL sodium selenite (ITS; Roche; […] (passage 2) and culture kits were purchased from Lonza. […] were maintained in Renal Epithelial Cell BulletKitTM (CC-3190, Lonza) at 37°C and 5% CO2 atmosphere. Cells were passaged to 96-well plates with a density of 4000 cells/well. After 24 h culture, compounds with different concentration series were added into each well and incubated for 4, 24, 48, and 72 h. HK-2 and […] were treated with compounds for 4, 24, 48, and 72 h, then the cells were lysed and the RNA reverse transcribed with the TaqMan® Gene Expression Cells-to-CTTM Kit (Life Technologies) according to the manufacturer's instructions. […] Hs00273334_m1), Lcn2 (NGAL; Hs01008571_m1), and Csf1 (M-CSF; Hs00174164_m1). All probes span an exon-exon junction. The real-time quantitative reverse transcription PCR (qRT-PCR) was performed in a 10 μl final reaction mixture using a ViiA 7TM system (Applied Biosystems®, Sydney, NSW, Australia) based on the following thermo cycling conditions: 10 min at 95°C for one cycle, 15 sec at 95°C, 60 sec at 60°C for 40 cycles. The ViiA 7TM software was used for data analysis with Hprt1 expression used for normalization. All assays were performed at least three times, with at least two technical replicates in each assay.

Data set [6] in a line: Resazurin cytotoxicity assay in hRPTECs. The note with it: human, hRPTECs (passage 2); 72 h incubation; Mean ± Standard deviation, n = 3. As for the experimental part:
as §1

The test system of data set [7] is NGAL mRNA. Nature of the data set: NGAL mRNA qRT-PCR in hRPTECs. Also on record: key to Upregulation of NGAL hRPTECs R: +: statistically significant increase; −: no significant increase. The procedure:
as §3

Data set [8] relates to KIM-1 mRNA. The experiment in a line: KIM-1 mRNA qRT-PCR in HK-2 cells. Also on record: key to Upregulation of KIM-1 HK-2 R: +: statistically significant increase; −: no significant increase. As for the experimental part:
as §3

Data set [9] concerns NGAL mRNA. Nature of the data set: NGAL mRNA qRT-PCR in HK-2 cells. Also noted: key to Upregulation of NGAL HK-2 R: +: statistically significant increase; −: no significant increase. The note with it: mRNA levels; 72 h time point. The procedure:
as §3

Data set [10] has as its system KIM-1. Nature of the data set: KIM-1 protein ELISA in HK-2 cells. Also noted: key: +: statistically significant increase; −: no significant increase. The note with it: protein levels in culture medium; 72 h time point. As for the experimental part:
as §2

For data set [11], the system named is NGAL. Nature of the data set: NGAL protein ELISA in HK-2 cells. Also on record: key: +: statistically significant increase; −: no significant increase. The following applies: protein levels in culture medium; 72 h time point. The procedure: as §2
The subject of data set [12] is KIM-1. The experiment in a line: KIM-1 protein ELISA in hRPTECs. Also noted: key to Upregulation of KIM-1 hRPTECs P: +: statistically significant increase; −: no significant increase. The procedure:
as §2

The mark [13] stands for this setting: protein levels in culture medium, 72 h time point.

On to `COc1cccc2c1C(=O)c1c(O)c3c(c(O)c1C2=O)C[C@@](O)(C(=O)CO)C[C@@H]3O[C@H]1C[C@H](N)[C@H](O)[C@H](C)O1` [Doxorubicin, doxorubicin], for which the CC50 at 72 h was 2.1 ± 1 µM in data set [1], over 50 µM in data set [3], over 50 µM in data set [4] and 5.2 ± 1 µM in data set [6]. In addition, the “M-CSF mRNA levels in hRPTECs” value in the data set on M-CSF mRNA is on record as “significant results; also recorded: significant induction”. The “NGAL protein in hRPTEC culture medium” value in the data set with NGAL [2] is on record as “increases”. For the same molecule, in the data set on KIM-1 mRNA [5] (72 h, high dose), the “KIM-1 mRNA in hRPTECs” value is given as “stimulation; also recorded: significant induction”. Besides, the “NGAL mRNA levels in hRPTECs” value in the data set with NGAL mRNA [7] (72 h exposure, 1 μmol/L (high dose), P < 0.001) was “kept rising; also recorded: significant induction”. Further, in the data set on KIM-1 mRNA [8] (72 h, P < 0.005), the “KIM-1 mRNA transcription level in HK-2 cells” value is “increased”.
Turning to `C[C@@H]1[C@H](O)[C@@H](C)/C=C/C=C/C=C/C=C/C=C/C=C/C=C/[C@H](O[C@@H]2O[C@H](C)[C@@H](O)[C@H](N)[C@@H]2O)C[C@@H]2O[C@](O)(C[C@@H](O)C[C@@H](O)[C@H](O)CC[C@@H](O)C[C@@H](O)CC(=O)O[C@H]1C)C[C@H](O)[C@H]2C(=O)O` [AmB, amphotericin B], the CC50 at 72 h in data set [1] is 20 ± 3 µM; in data set [3] it was over 50 µM; in [4], over 50 µM; in data set [6], 6 ± 1 µM. For the same molecule, the “NGAL protein in hRPTEC culture medium” value with NGAL [2] is listed as “increases”. In the data set on NGAL [2] (setting [13]), the “Upregulation of NGAL hRPTECs P” value is listed as “+”. Also, in the data set on NGAL mRNA [9], the “Upregulation of NGAL HK-2 R” value was “−”. In addition, in the data set on KIM-1 [10], the “Upregulation of KIM-1 HK-2 P” value is “−”. In the data set with KIM-1 mRNA [5] (mRNA levels, 72 h time point), the “Upregulation of KIM-1 hRPTECs R” value is recorded as “−”. The “Upregulation of NGAL HK-2 P” value with NGAL [11] was “−”. Also, the “Upregulation of NGAL hRPTECs R” value in the data set with NGAL mRNA [7] (mRNA levels, 72 h time point) is given as “−”. For the same molecule, the “Upregulation of KIM-1 HK-2 R” value in the data set on KIM-1 mRNA [8] (mRNA levels, 72 h time point) is recorded as “−”. The “KIM-1 protein upregulation in hRPTECs” value with KIM-1 [12] (4 h, culture medium (Fig. S5A)) is listed as “significant upregulation”. The “Upregulation of KIM-1 hRPTECs P” value in the data set on KIM-1 [12] (setting [13]) is “+”.
